The results in this text go back to patent US9956157B2, “Composition containing fucosterol for skin whitening or moisturizing” (INDUSTRY-ACADEMIC COOPERATION FOUNDATION, YONSEI UNIVERSITY, priority 2014, dated 2018).

Molecules are shown by their SMILES.

Format in all cases: cell-based
One test has as its system B16F10 melanoma cells. Description: Melanin generation in α-MSH-stimulated B16F10 melanoma cells (absorbance 405 nm). The note with it: 200 nM α-MSH, fucosterol 5, 10, 20 μM, 72 hrs, P<0.01, FIG. 2. The protocol: B16F10 melanoma cells were incubated in a DMEM medium including 10% fetal bovine serum and then added in a 6-well plate with 2.5×10^5 cell/mL (the final volume of 3 mL). After being incubated for 24 hrs, the medium was removed and fucosterol which was dissolved in the DMEM medium including 200 nM α-MSH was treated at 5, 10, and 20 μM concentrations, respectively. After 72 hrs, the incubated medium was removed from the 6-well plate and 0.25% trypsin-ethylenediaminetetraacetate (trypsin-EDTA) solution was treated to collect a cell pellet, and the cell pellet was transferred to a 1.5 mL tube and centrifuged for 10 min at 10,000 rpm to remove a supernatant. […] This solution was diluted with phosphate buffered saline (PBS) and then the melanin content in a sample treatment group was calculated by measuring absorbance at 405 nm by an ELISA reader (Versa max, Sunnyvale, Calif., USA). In this case, cells without the fucosterol were set to a control group and the melanin generation degree was measured in the control group and cells treated with the fucosterol. According to Equation 1 below, the melanin content compared with the control group was calculated and the result was illustrated in FIG. 2. Melanin content (%) compared with control group=absorbance of each test material/absorbance of control group×100 [Equation 1]

Another test has as its system filaggrin. Description: Filaggrin protein expression (western blot) in HaCaT human keratinocytes. The note with it: HaCaT cells, fucosterol 5, 10, 20 μM, 24 hrs, FIG. 12. The protocol: HaCaT human keratinocytes were incubated in a Dulbecco's Modified Eagle's Media (DMEM) medium including 10% fetal bovine serum and then put in a 6-well plate with 2×10^5 cell/ml (the final volume of 3 ml). After being incubated for 24 hrs, the medium was removed and fucosterol which was dissolved in the DMEM medium was treated at 5, 10, and 20 μM concentrations, respectively. After 24 hrs, the HaCaT human keratinocytes were lysed with a NP40 buffer solution including proteinase inhibitor cocktail. The protein amount extracted from the HaCaT human keratinocytes was quantified by using a Bradford method. The sample was boiled for 5 min and then the same amount of protein ([…]) was isolated by electrophoresis with 10% SDS-PAGE. The isolated proteins after electrophoresis were transferred to a nitrocellular membrane and western blot was performed. A primary antibody was reacted and the nitrocellular membrane was washed three times by using Tris-buffer saline tween20 (TBST) for 10 min. In this case, the kind and the dilution of the primary antibody used in the present invention is 1:1000. In a secondary antibody reaction, a secondary antibody was put in the membrane performing the primary antibody reaction and reacted for 2 hrs at room temperature. In this case, a dilution of the secondary antibody was 1:5000. […]

The next test deals with caspase 14. Description: Caspase 14 mRNA expression (RT-PCR) in HaCaT human keratinocytes. The note with it: HaCaT cells, fucosterol 5, 10, 20 μM, 24 hrs, FIG. 11. The procedure: HaCaT human keratinocytes were incubated in a Dulbecco's Modified Eagle's Media (DMEM) medium including 10% fetal bovine serum and then put in a 6-well plate with 2×10^5 cell/ml (the final volume of 3 ml). After being incubated for 24 hrs, the medium was removed and fucosterol which was dissolved in the DMEM medium was treated at 5, 10, and 20 μM concentrations, respectively. After 24 hrs, the total RNA was collected by using a TRIzol reagent (Invitrogen, Carlsbad, Calif., USA) and reverse-transcribed and then a reverse transcription-polymerase chain reaction (RT-PCR) analysis was performed below. First, for cDNA synthesis, the RNA was reverse-transcribed by reverse transcriptase. The RT-PCR was performed by specific primers below and the result was illustrated in FIG. 11.

The subject of a further test is tyrosinase. Description: Tyrosinase protein expression (western blot) in B16F10 melanoma cells. The note with it: 200 nM α-MSH, fucosterol 5 and 20 μM, 24 hrs, FIG. 5. The protocol: B16F10 melanoma cells were incubated in a DMEM medium including 10% fetal bovine serum and then added in a 6-well plate with 2.5×10^5 cell/mL (the final volume of 3 mL). After being incubated for 24 hrs, the medium was removed and fucosterol which was dissolved in the DMEM medium including 200 nM α-MSH was treated at 5 and 20 μM of concentrations, respectively. The cells after 24 hrs were lysed with a NP40 buffer solution including proteinase inhibitor cocktail and the protein amount extracted from the cells was quantified by using a Bio-Rad protein assay dye (Bradford) reagent. The quantified protein was boiled for 5 min and isolated by electrophoresis with 10% SDS-PAGE to transfer the isolated proteins to a nitrocellular membrane. A primary antibody of tyrosinase was diluted in 2.5% bovine serum albumin at a ratio of 1:1000 and reacted with the protein transferred to the nitrocellular membrane for 20 hrs at room temperature. The primary antibody was reacted and the nitrocellular membrane was washed by using tris-buffer saline tween 20 (TBST) three times for 10 min. […] As the measured result, the protein expression of tyrosinase was verified and the loading amount of the protein was constant by α-tubulin.

Test [1] has as its system TRP-2 (tyrosinase-related protein 2). The experiment in a line: TRP-2 protein expression (western blot) in B16F10 melanoma cells. The note with it: 200 nM α-MSH, fucosterol 5 and 20 μM, 24 hrs, FIG. 6. The protocol: B16F10 melanoma cells were incubated in a DMEM medium including 10% fetal bovine serum and then added in a 6-well plate with 2.5×10^5 cell/mL (the final volume of 3 mL). After being incubated for 24 hrs, the medium was removed and fucosterol which was dissolved in the DMEM medium including 200 nM α-MSH was treated at 5 and 20 μM of concentrations, respectively. The cells after 24 hrs were lysed with a NP40 buffer solution including proteinase inhibitor cocktail and the protein amount extracted from the cells was quantified by using a Bradford reagent. The quantified protein was boiled for 5 min and isolated by electrophoresis with 10% SDS-PAGE to transfer the isolated proteins to a nitrocellular membrane. A primary antibody of […] and […] was diluted in 2.5% bovine serum albumin at a ratio of 1:1000 and reacted with the protein transferred to the nitrocellular membrane for 20 hrs at room temperature. The primary antibody was reacted and then the nitrocellular membrane was washed three times by using the TBST for 10 min. […] As the measured result, the protein expression of […] and […] was verified and it was shown that the loading amount of the protein was constant by α-tubulin.

Consider `C/C=C(\CC[C@@H](C)[C@H]1CC[C@H]2[C@@H]3CC=C4C[C@@H](O)CC[C@]4(C)[C@H]3CC[C@]12C)C(C)C` [fucosterol], for which the “inhibitory effect on melanin generation” value in the test on B16F10 melanoma cells is listed as “very excellent inhibitory effect”. In addition, in the test with filaggrin, the “protein expression of filaggrin” value is on record as “increased”. Besides, in the test on caspase 14, the “mRNA expression of caspase 14” value is “increased”. The “protein expression of tyrosinase” value in the test on tyrosinase is recorded as “reduced”. For the same compound, the “protein expression of TRP-2” value in test [1] is given as “reduced”.
